{
  "source": "patent US20220119375A1",
  "about": "“3-ARYLOXY-3-ARYL-PROPYLAMINE COMPOUND AND USES THEREOF” (Zhangzhou Pien Tze Huang Pharmaceutical Co., Ltd., priority 2018, published 2022)",
  "key": {"[1]": {"test_system": "C57 mice, hot plate pain model", "assay": "mice hot plate pain model", "type": "in vivo, mouse", "settings": "10 mg/kg intraperitoneal, hot plate 55±0.1° C., within 60 minutes", "description": "SPF-grade C57 male mice were placed at hot plate with constant 55±0.1° C. […] If the pain reaction of mice was observed, the mice were taken out immediately to prevent mice from scalding. […] The test compounds were freshly prepared on the day of administration. 0.9% NaCl physiological saline solution was prepared as solvent for later use. Appropriate amount of test compounds were added into required volume of physiological saline and fully suspended, and the concentration of the drug compound in preparation was 1 mg/ml. The standard volume of administration to mice was 10 ml/kg (or 0.1 ml/10 g). […] The administration volume was 10 ml/kg. […] Hot plate observation index: the reaction time of mice on the hot plate at 55±0.1° C. (Time latency). Measurement and recording were conducted at 3 h before administration and 15 min, 30 min, and 60 min after administration. Maximum possible effect (MPE) % was used to evaluate analgesic effect of each compound, i.e., MPE %=[(Post drug latency-baseline latency)/(30-baseline latency)]×100. MPE % at different time points was recorded. The higher the value of MPE % was, the stronger the analgesic effect of the compound was."}, "HepG2 cell": {"test_system": "HepG2 cell", "assay": "Cytotoxicity test (CCK-8), hepatotoxicity", "type": "cell-based", "settings": "Homo sapiens, 72 h", "description": "(§1) HepG-2 and SH—SY5Y cells were placed in 10 cm dish and cultured at 37° C., 5% CO2 in a cell incubator. Trypsin was used to digest and resuspend cells and cells were counted. The cells were transferred to 96-well plate with 8000 cells in a well (100 μl/well). A serial of gradient concentration dilutions of compound with 2-fold dilution were prepared, and the system was 100 μL/well. The supernatant of cell culture system in the 96-well plate was removed on the first day, and fresh-prepared drug concentration system was add into culture plate wells (duplicate wells were set). The cells were cultured at 37° C., 5% CO2 in a cell incubator for 72 h. After the cell culture was completed, the supernatant of cell culture system was removed from 96-well plate, 100 μl of detection solution containing 10% CCK-8 medium was added into each well, and the cells were cultured at 37° C., 5% CO2 in a cell incubator for 1 h. Microplate reader was used to measure the absorbance at 450 nm. Data was processed to calculate cytotoxicity, and IC50 was calculated by GraphPad Prism. […]\n(§2) A (Dosing): the absorbance of wells containing cells, CCK-8 solution and drug solution.\n(§3) A (control): the absorbance of wells containing medium and CCK-8 solution and without cells.\n(§4) A (0 Dosing): the absorbance of wells containing cells and CCK-8 solution but without drug solution."}, "SH—SY5Y cells": {"test_system": "SH—SY5Y cells", "assay": "Cytotoxicity test (CCK-8), neurotoxicity", "type": "cell-based", "settings": "Homo sapiens, 72 h", "description": "as §1, §2, §3, §4"}},
  "data": [
    {"smiles": "CNCC[C@H](Oc1cccc2ccoc12)c1cccs1", "note": "[Compound IC-1, (S)-3-(benzofuran-7-yloxy)-N-methyl-3-(thiophen-2-yl)propyl-1-amine]", "values": [
      {"measurement": "analgesic effect (MPE %) on hot plate", "setting": "[1]", "result": "stronger than those of gabapentin and duloxetine"}
    ]},
    {"smiles": "CNCC[C@H](Oc1cccc2ccccc12)c1cccs1", "note": "[Duloxetine (S configuration), Duloxetine]", "values": [
      {"measurement": "IC50", "setting": "HepG2 cell", "result": 33, "unit": "µM"},
      {"measurement": "IC50", "setting": "SH—SY5Y cells", "result": 28, "unit": "µM"}
    ]}
  ]
}
